Measured values from patent US20070197509A1, “Compositions and methods for modulating gated ion channels” (PainCeptor Pharma Corporation, priority 2005, published 2007).

Tests used:
[1] = system: hASIC3 (h3) and/or hASIC1a (h1a); experiment: FlexStation/FLIPR assay, channel not marked in the cell; type: cell-based, human; conditions: FlexStation, Table C
Description: (§1) The MES-induced peak calcium response (or change in membrane potential), in the presence of test substance, is expressed relative to the MES response alone. Test substances that block the MES-induced calcium response (or change in membrane potential) are re-tested in triplicates. Confirmed hits are picked for further characterization by performing full dose-response curves to determine potency of each hit compound as represented by the IC50 values (i.e., the concentration of the test substance which inhibits 50% of the MES-induced calcium and/or membrane potentiation response; see, for example, FIG. 1).
(§2) The data shown in Table H was acquired using the FlexStation assay described in Example 1 on HEK293 cells expressing hASIC3 (h3) and/or hASIC1a (h1a).

[2] = molecular target: T1, hASIC1a (Homo sapiens, UniProt P78348); experiment: FlexStation/FLIPR calcium-imaging assay, acid (MES)-induced response in ASIC1a expressing cells; type: cell-based; parameters: expressed in transfected cells
T1 sequence (P78348 1-528): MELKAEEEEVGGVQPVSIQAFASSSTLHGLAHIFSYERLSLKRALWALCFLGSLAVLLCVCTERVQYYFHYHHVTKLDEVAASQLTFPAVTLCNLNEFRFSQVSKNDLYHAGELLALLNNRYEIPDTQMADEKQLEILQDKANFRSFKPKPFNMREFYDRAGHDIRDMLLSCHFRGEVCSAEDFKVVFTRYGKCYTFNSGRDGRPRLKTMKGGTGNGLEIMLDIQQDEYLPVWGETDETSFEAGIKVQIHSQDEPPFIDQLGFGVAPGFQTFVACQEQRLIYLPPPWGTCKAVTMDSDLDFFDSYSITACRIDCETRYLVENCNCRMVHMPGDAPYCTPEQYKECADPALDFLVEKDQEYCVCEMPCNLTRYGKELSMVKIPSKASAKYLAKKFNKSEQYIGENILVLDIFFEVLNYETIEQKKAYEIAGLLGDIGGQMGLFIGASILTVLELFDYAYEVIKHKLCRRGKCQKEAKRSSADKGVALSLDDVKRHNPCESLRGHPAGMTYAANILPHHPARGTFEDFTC
Method: Identification of ASIC Antagonists Using Calcium-Imaging
ASIC1a expressing HEK293 or CHO cells are grown in culture medium (DMEM with 10% FBS), in polystyrene culture flasks ([…]) at 37° C. in a humidified atmosphere of 5% CO2. Confluency of cells should be 80-90% on day of plating. Cells are rinsed with 10 ml of PBS and re-suspended by addition of culture medium and trituration with a 25 ml pipette.
The cells are seeded at a density of approximately 1×10^5 cells/ml for HEK293 and 8×10^4 for CHO cells (100 μl/well) in black-walled, clear bottom, poly-D-lysin pre-treated 96-well plates. Plated cells were allowed to proliferate for 48 h before loading with dye.
Fluo-4/AM (1 mg, Molecular Probes) is dissolved in 912 μl DMSO. The Fluo-4/AM stock solution (1 mM) is diluted with culture medium to a final concentration of 2 μM (loading solution).
The culture medium is aspirated from the wells, and 80 μl of the Fluo-4/AM loading solution is added to each well. The cells are incubated at 37° C. for 30 min. When CHO cells are used, probenicid at 2.5 mM (final concentration) is added in the loading solution.
After the loading period (15-20 min., the loading solution is aspirated and the cells are washed twice with 100 μl modified Assay Buffer (145 mM NaCl, 5 mM KCl, 5 mM CaCl2, 1 mM MgCl2, 10 mM HEPES, pH 7.4) to remove extracellular dye. Following the second wash, 100 μl modified Assay Buffer is added to each well and the fluorescence is measured in FLIPR™ or FlexStation™ (Molecular Devices, USA), or any other suitable equipment known to the skilled in the art. When CHO cells are used, probenicid at 2.5 mM (final concentration) is added in the wash buffer.
First addition: 50 μl test solution at a rate of 26 μl/sec and a starting height of 125 μl
Second addition: 50 μl MES solution (20 mM, 5 mM final concentration) at a rate of 26 μl/sec and a starting height of 115 μl.
Reading intervals: pre-incubation—120 sec. antagonist phase, addition of MES at 145 sec. and reading time with agonist 100 sec (total run time of 240 sec).
Fluorescence obtained after stimulation is corrected for the mean basal fluorescence (in modified Assay Buffer).
as §1

[3] = molecular target: T2, hASIC3 (Homo sapiens, UniProt Q9UHC3); experiment: FlexStation assay on HEK293 cells expressing hASIC3; type: cell-based; parameters: expressed in transfected cells; host or cells: HEK293 cells; conditions: for IC50: FlexStation (Flex), Tables A-F, read-out: Biological Data (IC50 uM) h3 (Flex)
T2 sequence (Q9UHC3 1-531): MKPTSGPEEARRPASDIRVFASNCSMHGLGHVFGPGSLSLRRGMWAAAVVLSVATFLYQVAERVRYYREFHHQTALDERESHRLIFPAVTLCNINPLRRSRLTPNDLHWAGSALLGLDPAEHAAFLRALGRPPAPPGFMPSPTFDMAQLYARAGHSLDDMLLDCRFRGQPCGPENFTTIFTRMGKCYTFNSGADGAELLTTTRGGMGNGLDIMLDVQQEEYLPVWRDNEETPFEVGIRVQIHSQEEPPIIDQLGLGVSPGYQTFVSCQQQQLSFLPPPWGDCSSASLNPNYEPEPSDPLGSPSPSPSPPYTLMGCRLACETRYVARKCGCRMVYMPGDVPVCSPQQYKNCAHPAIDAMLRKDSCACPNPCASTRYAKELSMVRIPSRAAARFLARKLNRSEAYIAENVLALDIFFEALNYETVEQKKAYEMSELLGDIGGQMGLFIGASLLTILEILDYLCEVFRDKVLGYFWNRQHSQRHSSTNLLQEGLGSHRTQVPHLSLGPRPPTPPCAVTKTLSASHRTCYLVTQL
Method: A vial of FMP dye (Molecular Devices) is resuspended in 10.5 ml of assay buffer (48.3 mM NaCl, 93 mM NMDG, 5 mM KCl, 5 mM CaCl2, 1 mM MgCl2, 10 mM HEPES, pH 7.4). The culture medium is aspirated from the wells, and 100 μl of the FMP loading solution is added to each well. The cells are incubated at 37° C. for 30 min.
After the loading period, the loading solution is left on the cells and the membrane potential-induced fluorescence is measured in FLIPR™ or FlexStation™ (Molecular Devices, USA), or any other suitable equipment known to the skilled in the art.
For cells co-expressing ASIC1a and ASIC3 channels (e.g. HEK293 cells), membrane potential dye (FMP dye) is used and the FlexStation settings are as above.
as §1, §2

[4] = molecular target: T1, hASIC1a; experiment: Two-electrode voltage clamp in Xenopus laevis oocytes expressing hASIC1a (OpusExpress); type: cell-based; parameters: expressed in transfected cells; host or cells: Xenopus laevis oocytes, nuclear microinjection of cDNA (e.g. in pCDNA3)
Summary of the method: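 Two-electrode voltage clamp on Xenopus oocytes expressing homomeric hASIC1a, recorded on an automated multichannel system. Oocytes superfused with Ringer (HEPES, pH 7.4); currents evoked by MES-buffered acidic Ringer, with compound present in both control and acidic solutions, at room temperature.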

[5] = FlexStation (Flex), Tables A-F, read-out: Biological Data (IC50 uM) h1a (Flex)

| SMILES | Biological Data (Flex), channel not given [1] | IC50 [2, 5] | IC50 [3] | also measured |
| --- | --- | --- | --- | --- |
| COc1ccc(-c2cc(C(=O)O)c3ccccc3n2)cc1OC [Compound 39, 2-(3,4-Dimethoxy-phenyl)-quinoline-4-carboxylic acid] | Not Active (Flex) |  |  |  |
| COc1ccc(-c2cc(C(=O)O)c3cc(Cl)ccc3n2)cc1 [Compound 38, 6-chloro-2-(4-methoxy-phenyl)-quinoline-4-carboxylic acid] | Not Active (Flex) |  |  |  |
| O=C(O)c1cccc(Nc2nc(-c3ccc(Cl)cc3Cl)nc3ccccc23)c1 [Compound 101, 3-[2-(2,4-dichloro-phenyl)-quinazolin-4-ylamino]-benzoic acid] |  | 20 to 30 µM | > 50 µM |  |
| Brc1ccc(-c2nc(N3CCNCC3)c3ccccc3n2)cc1 [Compound C, 2-(4-bromo-phenyl)-4-piperazin-1-yl-quinazoline] |  |  |  | IC50 ([2]; calcium mobilization assay, HEK293, n=3-7, read-out: FPAT-ASIC1a human/HEK293/k21 IC50): > 20 µM |
| Clc1ccc2c(N3CCNCC3)ccnc2c1 [Compound H, 7-chloro-4-piperazin-1-yl-quinoline] |  | 2 to 10 µM | 5 to 15 µM | EC50 [3]: < 10 µM; IC50 ([4]; OpusExpress (OX), Tables A-F, h1a printed in some cells only, read-out: Biological Data (IC50 uM) h1a (OX)): 30 to 50 µM; IC50 ([4]; Table H, read-out: IC50 (μM) Opus Express (h1a)): 43.7 µM |
